PubChem BioAssay (NCI)
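All cell lines were grown in 96-well plates and treated with compound for 48 hours. TGI is the concentration that stops growth completely.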

Key:
Test in all cases: DTP human tumour cell line panel, 48 h
[1] = tested on: HOP-92 NSCLC
[2] = tested on: TK-10 renal
[3] = tested on: NCI-H460 lung
[4] = tested on: HL-60(TB) leukemia
[5] = tested on: UACC-257 melanoma
[6] = tested on: OVCAR-4 ovarian
[7] = tested on: BT-549 breast
[8] = tested on: RPMI-8226 leukemia
[9] = tested on: RXF 393 renal
[10] = tested on: HT29 colon
[11] = tested on: MALME-3M melanoma
[12] = tested on: KM12 colon
[13] = tested on: NCI-H23 lung
[14] = tested on: MDA-MB-231 breast
[15] = tested on: EKVX NSCLC
[16] = tested on: MDA-MB-435
[17] = tested on: SR leukemia
[18] = tested on: OVCAR-3 ovarian
[19] = tested on: SF-268 CNS
[20] = tested on: CCRF-CEM leukemia
[21] = tested on: UACC-62 melanoma
[22] = tested on: 786-0 renal
[23] = tested on: K-562 leukemia
[24] = tested on: SW-620 colon
[25] = tested on: NCI-H522 lung
[26] = tested on: NCI-H226 lung
[27] = tested on: ACHN renal
[28] = tested on: MCF7 breast
[29] = tested on: A549 NSCLC
[30] = tested on: HCT-116 colon
[31] = tested on: A498 renal
[32] = tested on: SN12C renal
[33] = tested on: COLO 205 colon
[34] = tested on: SNB-19 CNS
[35] = tested on: SF-295 CNS
[36] = tested on: OVCAR-8 ovarian
[37] = tested on: T-47D breast
[38] = tested on: U251 CNS
[39] = tested on: HS 578T breast
[40] = tested on: SF-539 CNS
[41] = tested on: NCI/ADR-RES ovarian
[42] = tested on: LOX IMVI melanoma
[43] = tested on: OVCAR-5 ovarian
[44] = tested on: UO-31 renal
[45] = tested on: CAKI-1 renal
[46] = tested on: MOLT-4 leukemia
[47] = tested on: SK-MEL-2 melanoma
[48] = tested on: PC-3 prostate
[49] = tested on: HOP-62 NSCLC
[50] = tested on: SK-MEL-5 melanoma
[51] = tested on: HCT-15 colon
[52] = tested on: SNB-75 CNS
[53] = tested on: M14 melanoma
[54] = tested on: IGROV1 ovarian
[55] = tested on: DU-145 prostate
[56] = tested on: SK-MEL-28 melanoma
[57] = tested on: SK-OV-3 ovarian

`CC(NCCN(C)C)C1CCC2C3CCc4cc(O)ccc4C3CCC12C` (configuration not stated) was tested, and the TGI [1] was 13.1 µM, the TGI [2] was 6.63 µM and the TGI [3] was 4.68 µM. For the same molecule, the TGI [4] was 4.15 µM, the TGI [5] was 3.83 µM and the TGI [6] was 9.55 µM. The TGI [7] was 31.4 µM, the TGI [8] was 7.35 µM and the TGI [9] was 3.69 µM. The TGI [10] was 8.45 µM, the TGI [11] was 3.73 µM and the TGI [12] was 10.3 µM. For the same molecule, the TGI [13] was 16.5 µM, the TGI [14] was 4.42 µM and the TGI [15] was 17.7 µM. The TGI [16] was 4.7 µM, the TGI [17] was 3.85 µM and the TGI [18] was 4.37 µM. For the same molecule, the TGI [19] was 17.5 µM, the TGI [20] was 3.47 µM and the TGI [21] was 3.45 µM. The TGI [22] was 4.1 µM, the TGI [23] was 4.81 µM and the TGI [24] was 12.7 µM. For the same molecule, the TGI [25] was 10.6 µM, the TGI [26] was 34 µM and the TGI [27] was 3.99 µM. It also gave a TGI [28] of 11.5 µM, a TGI [29] of 13.6 µM and a TGI [30] of 7.7 µM. The TGI [31] was 8.38 µM, the TGI [32] was 4.42 µM and the TGI [33] was 3.54 µM. For the same molecule, the TGI [34] was 13.2 µM, the TGI [35] was 6.72 µM and the TGI [36] was 11 µM. The TGI [37] was 5.29 µM, the TGI [38] was 4.35 µM and the TGI [39] was 18.1 µM. It also gave a TGI [40] of 9.52 µM, a TGI [41] of 8.97 µM and a TGI [42] of 4.75 µM. It also gave a TGI [43] of 18.3 µM, a TGI [44] of 3.76 µM and a TGI [45] of 4.32 µM. The TGI [46] was 5.19 µM, the TGI [47] was 3.79 µM and the TGI [48] was 11.7 µM. The TGI [49] was 8.7 µM, the TGI [50] was 3.29 µM and the TGI [51] was 9.49 µM. It also gave a TGI [52] of 10.2 µM, a TGI [53] of 3.09 µM and a TGI [54] of 17.2 µM. For the same molecule, the TGI [55] was 18.6 µM, the TGI [56] was 5.29 µM and the TGI [57] was 15.9 µM.
